Laboratory results from US4202891A, “15-Oxygenated sterol compounds and the use of such compounds to inhibit the biosynthesis of sterols” (priority 1977, dated 1980).
Read-outs that look alike come from different tables or passages of the source.

What was measured:
[1] = tested on: sterol biosynthesis in L cells; conditions: cited from earlier work; for inhibitory action on the synthesis of sterols (in words): L cells in culture
[2] = tested on: sterol biosynthesis in primary cultures of mouse liver cells; conditions: cited from earlier work; for inhibitory action on the synthesis of sterols (in words): primary cultures of mouse liver cells
[3] = tested on: plasma cholesterol; conditions: cited from earlier work
[4] = tested on: serum cholesterol; assay: Effect on serum cholesterol levels in rats, daily subcutaneous injection (Examples 41, 42); assay type: in vivo, rat (male, Sprague-Dawley); conditions: for Serum Cholesterol (Mean ± S.E.M.): 5 mg s.c. once a day in triolein; for % Reduction of serum cholesterol (Mean ± S.E.M.): from initial levels in same rats
Method: Male rats of the Sprague-Dawley strain were fed Purina rat chow ad libidum. The rats were maintained on a light (7 A.M.-6 P.M.) -dark (6 P.M.-7 A.M.) cycle throughout the study and for a period of at least 4 days prior to the initiation of the study.
(§1) 3β-Hexadecanoyloxy-5α-cholest-8(14)-en-15-one (5 mg; dissolved in 0.25 ml of triolein), hereafter referred to as the "palmitate ester", or 3β-hemisuccinoyloxy-5α-cholest-8(14)-en-15-one (5 mg; suspended in 0.25 ml of triolein through the use of a tight-fitting all-glass homogenizer), hereafter referred to as the "hemisuccinate ester", were administered subcutaneously once a day at about 12 P.M. to each of eight and six rats, respectively. Control animals (8) received daily injections of triolein (0.25 ml).
Blood samples were taken from the rats periodically and the serum cholesterol concentrations measured, in duplicate, by the method of Abell et al., J. Biol. Chem., Vol. 195, pp. 357-366 ([…]).
Following generally the procedure described in Example 41, 3β-Ethoxy-14α-ethyl-5α-cholest-7-en-15-one (5 mg) in triolein (0.25 ml) was administered subcutaneously once a day to each of eight rats. Control animals (8) received daily injections of triolein (0.25 ml).
Similarly, 5α-cholest-8(14)-en-3β-ol-15-one (2mg) in (0.2 ml) olive oil or 5.0 mg in 0.5 ml of olive oil) was administered subcutaneously once a day to each of a group of rats. The 2 mg dose was administered to 12 rats, while a like number of rats received daily injections of 0.2 ml olive oil. 5 mg doses were administered to each of 6 rats, while 6 control animals received daily injections of 0.5 ml olive oil. The rats used in this study initially weighed between 110 and 190 grams.

[5] = assay type: in vivo, rat (male, Sprague-Dawley)
Method: as §1
The average percentage weight gain over the total experimental period in the palmitate, hemisuccinate, and triolein groups were (mean±S.E.M.) 40.5±4.6, 40.7±1.6, and 43.6±3.3, respectively.

[6] = tested on: liver; assay type: in vivo, rat (male, Sprague-Dawley); conditions: 5 mg s.c. once a day
Method: as §1
The mean values of the liver weights of the triolein-treated rats (9.6 g±0.08, S.E.M.). S.E. differed from those of the palmitate ester-treated rats (11.4 g±0.5, S.E.M.). Similarly, the mean value of the liver weights, when expressed as a percentage of the total body weight, of the triolein-treated rats (4.09%±0.08, S.E.M.) differed from the mean value for the palmitate ester-treated rats (4.53%±0.09, S.E.M.).

[7] = tested on: sterol biosynthesis in L cells; assay: Inhibition of sterol synthesis from [1-14C]acetate in L cell cultures; assay type: cell-based; conditions: Mus musculus; L cell cultures; read-out: Concentrations Required for 50% Inhibition of Sterol Synthesis
Method: The effect of various 15-oxygenated sterols on sterol biosynthesis in L cells and in primary cultures of mouse liver cells was tested essentially under conditions described in detail previously [A. A. Kandutsch and H. W. Chen, J. Biol. Chem., Vol. 248, pp. 8408-8417 (1973) and A. A. Kandutsch and H. W. Chen, J. Biol. Chem., Vol. 249, pp. 6057-6061 (1974`)].
(§2) The primary liver cell cultures were prepared from 16-day-old (C57BL/6J fetuses and grown in chemically defined medium (serum-free) as described in the above cited publications. The L cells, a subline of NCTC clone 929 mouse fibroblasts, were grown in chemically defined medium (serum-free) as described in the publications. These L cells are transformed fibroblasts which are regarded as malignant since they will grow as tumors if injected into the mouse strain from which they were initially obtained.
(§3) The preparation of steroid-containing media, procedures for assays of the conversion of [1-^14 C]acetate into digitonin-precipitable sterols, fatty acids, and CO2 and methods for the measurement of DNA, protein, and HMG-CoA reductase were as described in the published articles. L cell cultures were preincubated with the 15-oxygenated sterols and their derivatives for 4 hours, then [1-^14 C]acetate was added at a concentration of 4 μmoles per ml (4 μCi per ml); or the L cell cultures were incubated for 5 hours with the 15-oxygenated sterols before they were harvested for determination of microsomal HMG-CoA reductase activity.
The test compounds were tested over a range of at least 4 concentrations and the assay was repeated until the concentration of test compound required to produce 50% inhibition was located on the steeply declining portion of an activity vs. concentration plot. To diminish any possible effects of generalized differences in cellular metabolism, the rates of sterol synthesis from [1-^14 C]acetate were calculated as the ratio of [^14 C]sterols to [^14 C]fatty acids as described in the two cited articles by Kandutsch and Chen.

[8] = tested on: HMG-CoA reductase; assay: Reduction of the activity of HMG-CoA reductase in L cell cultures; assay type: cell-based, mouse; conditions: read-out: Concentrations Required for 50% Reduction of the Activity of HMG-CoA Reductase
Method: as §2, §3
A number of the 15-oxygenated sterols have also been tested with respect to their effects on the activity and/or levels of the enzyme HMG-CoA reductase (3-hydroxy-3-methylglutaryl coenzyme A reductase) in the L cells and in the liver cells. As noted previously, this enzyme catalyzes the reduction of 3-hydroxy-3-methylglutaryl coenzyme A to yield mevalonic acid, an essential intermediate in the biosynthesis of sterols and of a number of other essential compounds in cells.
Using the technique described by Kandutsch and Chen in the article cited in the previous example, the concentrations of various 15-oxygenated sterols required to reduce the levels of activity of HMG-CoA reductase by 50% was determined in the cells of the L cells in culture and of the primary cultures of liver cells.

C[C@H](CCCC(C)(C)O)[C@H]1CC[C@H]2[C@@H]3CC=C4C[C@@H](O)CC[C@]4(C)[C@H]3CC[C@]12C [Cholest-5-en-3β,25-diol]
IC50 ([1]; L cell cultures, as reported by Kandutsch and Chen, read-out: Concentrations Required for 50% Inhibition of Sterol Synthesis): 0.07 µM
inhibitory action on the synthesis of sterols (in words) [1]: strong inhibitory action
IC50 ([2]; liver cells, read-out: lowest previously reported concentration for 50% inhibition of sterol synthesis): 1 µM
IC50 ([2]; primary cultures of liver cells, as reported by Kandutsch and Chen, read-out: Concentrations Required for 50% Inhibition of Sterol Synthesis): 1 µM
inhibitory action on the synthesis of sterols (in words) [2]: strong inhibitory action
plasma cholesterol-lowering effect in mice (in words) [3]: no significant plasma cholesterol-lowering effect in mice

CC(C)CCC[C@@H](C)[C@H]1CC(=O)C2=C3CC[C@H]4C[C@@H](OC(=O)CCC(=O)O)CC[C@]4(C)[C@H]3CC[C@@]21C [3β-hemisuccinoyloxy-5α-cholest-8(14)-en-15-one]
Serum Cholesterol (Mean ± S.E.M.) ([4]; day 0 (initial)): 89.1 ± 2.6 mg per 100 ml
Serum Cholesterol (Mean ± S.E.M.) ([4]; day 3): 78.6 ± 2.4 mg per 100 ml
Serum Cholesterol (Mean ± S.E.M.) ([4]; day 6): 72.5 ± 1.9 mg per 100 ml
Serum Cholesterol (Mean ± S.E.M.) ([4]; day 9): 72.3 ± 1.6 mg per 100 ml
Serum Cholesterol (Mean ± S.E.M.) ([4]; day 12): 58.8 ± 2.8 mg per 100 ml
decrease in serum cholesterol levels (in words) ([4]; 5 mg s.c. once a day, after 3, 6, 9, 12 days vs same rats before, after 12 days vs triolein): significant decreases in serum cholesterol levels
% Reduction of serum cholesterol (Mean ± S.E.M.) ([4]; 5 mg s.c. once a day, day 3): 13.5 ± 4.4%
% Reduction of serum cholesterol (Mean ± S.E.M.) ([4]; 5 mg s.c. once a day, day 6): 18.1 ± 4.1%
% Reduction of serum cholesterol (Mean ± S.E.M.) ([4]; 5 mg s.c. once a day, day 9): 18.4 ± 3.5%
% Reduction of serum cholesterol (Mean ± S.E.M.) ([4]; 5 mg s.c. once a day, day 12): 33.9 ± 2.9%
average percentage weight gain (mean±S.E.M.) ([5]; 5 mg s.c. once a day, total experimental period): 40.7±1.6%
differences in growth versus vehicle-treated rats (in words) ([5]; daily s.c.): no significant differences in the growth
difference of liver weights from triolein-treated rats (in words) [6]: no significant difference
liver weight (mean, S.E.M.) [6]: 10.6 g
liver weight as percentage of total body weight (mean, S.E.M.) [6]: 4.36%
IC50 [7]: 3.2 µM
IC50 [8]: 3 µM

CC(C)CCC[C@@H](C)[C@H]1CC[C@H]2[C@@H]3C(=O)C=C4C[C@@H](O)CC[C@]4(C)[C@H]3CC[C@]12C [7-ketocholesterol]
inhibitory action on the synthesis of sterols (in words) [1]: strong inhibitory action
inhibitory action on the synthesis of sterols (in words) [2]: strong inhibitory action
plasma cholesterol-lowering effect in mice (in words) [3]: no significant plasma cholesterol-lowering effect in mice
